Experimental data published in patent publication US5808065A, “Pyridazinone derivatives and processes for preparing the same” (Tanabe Seiyaku Co., Ltd., priority 1995, dated 1998).

Key:
[1] = Side Effect to Circulatory System (normal awakened rats, tail-cuff method); type: in vivo; conditions: 30 mg/kg/10 ml orally, before and 2 hours after administration
Description: One experimental group consisted of 4 rats. Each compound to be tested was suspended in purified water by using a small amount of Tween 80 (trade name, produced by Nacalai Tesque Co.), and a dose of 30 mg/kg/10 ml was administered orally to normal awakened rats. Systolic blood pressures and heart rates before administration and 2 hours after administration were examined. The systolic blood pressures and the heart rates were measured by the tail-cuff method (KN-210, trade name, produced by Natsume Seisakusho) under conditions of pretreatment at 40° C. for 15 minutes.
According to the following equations, the respective changing rates were calculated. [formula]

[2] = Antinephritic Action (protein excretion inhibition in nephritis induced with nephrotoxic serum (NTS)); type: in vivo, male WKY rats; conditions: 30 mg/kg/10 ml orally twice a day for 8 days; urine collected for 24 hours on the seventh day; 6 rats per group
Description: Rabbits were immunized several times with an adjuvant and a renal glomerular basement membrane fraction obtained from WKY rats, and then whole blood was collected from the rabbits to obtain a nephrotoxic serum (NTS). This NTS was diluted by 50 times with physiological saline, and to male WKY rats of 8 weeks old, 2.5 ml of the diluted NTS per 1 kg of body weight was injected intravenously to induce nephritis. To a normal group, the same amount of physiological saline was administered intravenously. One experimental group consisted of 6 rats. Each compound to be tested was suspended in purified water by using a small amount of Tween 80 (trade name, produced by Nacalai Tesque Co.), and a dose of 30 mg/kg/10 ml was orally administered twice a day for continuous 8 days. To a normal group and a control group, the same amount of purified water was administered orally. On the seventh day, the rats were placed in a metabolic cage, and urine was collected for 24 hours. By measuring the concentrations of protein in urine by the sulfosalicylic acid method, the amounts of excreted protein (mg/day) were determined, and protein excretion-inhibiting rates were calculated by the following equation. [formula]

mice = assay: Toxicity (death of mice observed for 3 days); type: in vivo
Text: The desired compound (I) of the present invention has low toxicity.

SMILES | Heart rate-changing rate [1] | Systolic blood pressure-changing rate [1] | Inhibition rate (protein excretion-inhibiting rate) [2] | death (mice; mouse, in vivo, ip, 300 mg/kg) | death (mice; orally, 1,000 mg/kg, observed for 3 days)
Nc1ncccc1C(=O)NCCCCc1ccc(-c2ccc(=O)[nH]n2)cc1 [Example 33] | 2 Δ% | 1 Δ% | 85.7% |  | 
Cc1ncccc1C(=O)NCCCCc1ccc(-c2ccc(=O)[nH]n2)cc1 [Example 32] | 5 Δ% | -2 Δ% | 64.3% |  | 
Cl.O=C(NCCCCc1ccc(-c2ccc(=O)[nH]n2)cc1)c1cccnc1 [Example 69, 6-[4-(4-(pyridin-3-ylcarbonylamino)butyl)phenyl]pyridazin-3(2H)-one hydrochloride] |  |  | 82.2% | no case of death was observed | no case of death was observed
Nc1ncccc1C(=O)NCCCCc1ccc(-c2ccc(=O)[nH]n2)cc1 [Example 70] |  |  | 74.1% |  | 
O=C(NCCCc1ccc(-c2ccc(=O)[nH]n2)cc1)c1cccnc1 [Example 31] | 7 Δ% | 0 Δ% |  |  | 
CC1CC(=O)NN=C1c1ccc(CCNC(=O)c2cccnc2)cc1 (stereo not drawn) [Known compound, 5-methyl-6-(4-[2-(pyridin-3-ylcarbonylamino)ethyl]phenyl)-4,5-dihydropyridazin-3 (2H)-one, reference compound] | 18 Δ% | -7 Δ% |  |  | 
O=C(NCCCOc1ccc(-c2ccc(=O)[nH]n2)cc1)c1cccnc1 [Example 36, 6-[4-(3-(pyridin-3-ylcarbonylamino)propoxy)phenyl]pyridazin-3(2H)-one] | 1 Δ% | 0 Δ% | 89.0% |  | 
C=CS(=O)(=O)NCCCc1ccc(-c2ccc(=O)[nH]n2)cc1 [Example 52-(4), 6-[4-(3-vinylsulfonylaminopropyl)phenyl]-pyridazin-3(2H)-one] |  |  | 74.6% |  | 
O=C(NCCCCc1ccc(-c2ccc(=O)[nH]n2)cc1)c1cccnc1 [Example 30, 6-[4-(4-(pyridin-3-ylcarbonylamino)butyl)phenyl]pyridazin-3(2H)-one] | 3 Δ% | -2 Δ% | 82.5% |  | 
